This note sets out measurements from patent publication US20250339443A1, “METHOD FOR TREATING OR PREVENTING CALCIUM RELEASE-ACTIVATED CALCIUM CHANNEL OR DISCOIDIN DOMAIN RECEPTOR 2 RELATED DISORDERS OR CONDITIONS” (LumiSTAR Biotechnology, Inc., priority 2023, published 2025).

The target of experiment [1] is T1, CRAC channel (Homo sapiens, UniProt Q96D31). Kind of experiment: CRAC channel activity / SOCE by Fura 2-AM cytosolic Ca2+ imaging in HEK293T cells. On the set-up: endogenous in cells; host or cells: HEK293T. The class given is cell-based. Conditions: 10 μM, 1 μM thapsigargin then 2 mM Ca2+.
T1 sequence (Q96D31 whole entry): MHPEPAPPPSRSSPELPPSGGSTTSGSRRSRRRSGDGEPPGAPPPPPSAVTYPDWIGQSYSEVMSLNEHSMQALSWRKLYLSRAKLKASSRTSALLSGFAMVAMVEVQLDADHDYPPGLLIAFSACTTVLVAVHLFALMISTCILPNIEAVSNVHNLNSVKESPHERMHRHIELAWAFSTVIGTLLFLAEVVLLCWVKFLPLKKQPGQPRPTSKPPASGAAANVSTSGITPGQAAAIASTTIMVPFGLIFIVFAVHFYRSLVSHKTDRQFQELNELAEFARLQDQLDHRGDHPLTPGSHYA
Experimental: CRAC channel activity was evaluated by applying 1 μM thapsigargin (Thap.) in a calcium-free solution to deplete the endoplasmic reticulum calcium store, followed by the reintroduction of 2 mM Ca^2+ in an external solution. The concentration of cytosolic calcium ions increases as calcium flows through the CRAC channel, leading to the second peak in cytosolic calcium waves. […] Each bar represents the mean value derived from 47 to 103 cells. […] Each bar represents the mean value derived from 83 to 176 cells. […] Further analyses are presented in FIG. 1I and FIG. 1J, where the second peak of each wave and rate of entry were analyzed. Each bar represents the mean value derived from 72 to 108 cells. […] In all the graphs, each bar represents mean±SEM and *, **, and *** denote p-value <0.05, 0.01, and 0.001, respectively.
Cells were then washed and incubated with the same solution in addition to the supplement of Fura 2-AM for another 15 minutes for fully de-esterification. […] 1 μM thapsigargin was added to induce endoplasmic reticulum (ER) calcium store depletion followed by applying 2 mM calcium solution to assess the activation of calcium release-activated calcium (CRAC) channels. Cells were alternately excited at 340 and 380 nm, and images were acquired every 2 seconds. […] All the images were analyzed by using IGOR Pro software. […]
Experiment [2] deals with T1, CRAC channel. Kind of experiment: SOCE in macrophages. The class given is cell-based. On the set-up: endogenous in cells; host or cells: HEK293T. Conditions: 10 μM. The procedure:
The effects of BTP2, WRG-28, Av, and CM-4620 on SOCE were evaluated in T cells (FIG. 4A) and macrophages (FIG. 4E). Cells were cultured on glass-bottom 96-well plates and pretreated with various compounds (10 μM) while being loaded with Fura 2-AM. Subsequently, the cytosolic calcium signal waves were recorded, and the second peak of each wave and rate of entry were assessed. Each bar represents the mean value derived from, 43 to 111 cells for T cells (FIG. 4A), and 52 to 91 cells for macrophages (FIG. 4E). Cytokine induction in T cells and macrophages was conducted as described in the methods section. The levels of cytokines, including IL-2, TNF-α, and IL-6 in the culture medium were assessed using ELISA kits for T cells (FIG. 4B, FIG. 4C, and FIG. 4D) and macrophages (FIG. 4F, FIG. 4G, and FIG. 4H), respectively. Each bar represents the mean±SEM. In all the graphs, *, **, and *** denote p-values of <0.05, 0.01, and 0.001, respectively. […]
Cells cultured on a glass-bottom 96 well plate for 48 hours were treated with different compounds (10 μM) and Fura 2-AM (1 μM) simultaneously in a solution containing 145 mM NaCl, 2.8 mM KCl, 2 mM CaCl2, 2 mM MgCl2, 10 mM D-glucose, 10 mM HEPES, pH 7.4 for 40 minutes in the dark. […] All the images were analyzed by using IGOR Pro software. […]

Regarding `CCNS(=O)(=O)c1ccc(COc2ccc3nc4ccc(=O)cc-4oc3c2)cc1` [WRG-28], at CRAC channel [1], the “second peak and rate of SOCE” value is listed as “significantly reduced”. Also, the SOCE in macrophages entry on CRAC channel [2] is “higher efficacy compared to Av”.
